This note sets out measurements from patent US9175024B2, “Platinum compound having amino or alkylamino-containing succinic acid derivatives as leaving group, preparation method thereof, and use thereof” (BEIJING FSWELCOME TECHNOLOGY DEVELOPMENT CO., LTD., priority 2011, dated 2015).

SMILES strings stand for the structures.

For orientation: IC50 means the concentration needed to halve the response being measured. A high value points to a need for much substance. As usually defined, the solubility is the dissolved amount per volume that the medium holds. Read a low solubility as a poorly soluble substance.

In one data set the test system is normal mice. As to the kind of experiment: Acute toxic effect of platinum complex on normal mice (LD50, single intravenous administration). It counts as in vivo, Kunming mice. The following applies: single intravenous administration in 5% glucose solution, 14 days observation, Bliss method. On the procedure: Kunming mice at 4˜6 weeks old and at the weight of 18˜22 g were taken, 50% male and 50% female. Embodiment platinum compound was dissolved with 5% glucose solution. […] Mortality and toxicity were observed after administration, totally observing 14 days, LD50 value was calculated with Bliss method according to mortality.

Another data set concerns Lung cancer H292. Description: MTT cytotoxicity, lung cancer H292. The format is cell-based. To be noted: n = 6, Lung cancer H292. On the procedure: (§1) Several kinds of tumor cells in exponential growth phase were prepared into single cell suspension, inoculated on 96 pore plat at the density of 4×10^4/hole, cultivated for 24 hours to enable to adhere to wall with 1640 culture medium containing 10% fetal calf serum (complete medium) at 37° C.; the final culture volume was 100 μl. Cell morphology was observed after culture for 24 hours.

Data set [1] has as its system Pulmonary epithelial cell BEAS-2B. Description: MTT cytotoxicity, pulmonary epithelial cell BEAS-2B. The format is cell-based. To be noted: n = 6, Pulmonary epithelial cell BEAS-2B. On the procedure: as §1
The next data set concerns Lewis lung cancer. As to the kind of experiment: MTT cytotoxicity, Lewis lung cancer. The format is cell-based. The following applies: n = 6, Lewis lung cancer. On the procedure:
as §1

The test system of a further data set is Colon cancer SW480. Description: MTT cytotoxicity, colon cancer SW480. The format is cell-based. The following applies: n = 6, Colon cancer SW480. On the procedure: as §1
The next data set deals with breast cancer MCF-7. As to the kind of experiment: In vivo antitumor activity, breast cancer MCF-7 in nude mice. The following applies: MCF-7 in female nude mice, 10 mg (platinum)/kg, once a week, 4 times, tumor weighed 4 weeks later.
The nature of data set [2]: Solubility in water of the embodiment and contrast compounds.
A further data set relates to Testis cell ST. As to the kind of experiment: MTT cytotoxicity, testis cell ST. The format is cell-based. The following applies: n = 6, Testis cell ST. On the procedure:
as §1

The next data set deals with Gastric cancer MGC803. As to the kind of experiment: MTT cytotoxicity, gastric cancer MGC803. The format is cell-based. To be noted: n = 6, Gastric cancer MGC803. How it is done: as §1
The test system of a further data set is Esophagus cancer ECA109. Description: MTT cytotoxicity, esophagus cancer ECA109. It counts as cell-based. To be noted: n = 6, Esophagus cancer ECA109. How it is done:
as §1

The compound `CCN(CC)CCCC(CC(=O)[O-])C(=O)[O-].NC1CCCC1N.[Pt+2]` (racemic) [Compound 15, [2-(3-diethylamino propyl)-succinato].[Cis-(1,2-trans-cyclopentyldiamine)]platinum (II)] gave an LD50 value with normal mice of 0.528 mmol/kg. Besides, the IC50 in the data set on Lung cancer H292 was found to be 145 µM; in [1], 15 µM; with Lewis lung cancer, 51 µM; in the data set with Colon cancer SW480, 32 µM. Also, in the data set on breast cancer MCF-7, the “Tumor inhibition rate (x ± SD)” value is given as 73.5 ± 12.31 9%. In [2], this compound returned a solubility of 151 mg/mL.
Take `CCCN(CCC)CCCC(CC(=O)[O-])C(=O)[O-].N[C@@H]1CCCC[C@H]1N.[Pt+2]` (stereo not drawn) [Compound 14, [2-(3-di-n-propylamino propyl)-succinato].[Cis-(1,2-trans-cyclohexyldiamine)]platinum (II)]: the LD50 value in the data set on normal mice is listed as 0.467 mmol/kg. The IC50 came out at 9 µM with Lung cancer H292, 8 µM in data set [1], 37 µM with Lewis lung cancer and 51 µM in the data set with Colon cancer SW480. In the data set on breast cancer MCF-7, the “Tumor inhibition rate (x ± SD)” value is on record as 70.1 ± 11.55 9%.
Take `CCN(CC)CCC1CC(=O)[O][Pt]2([NH]C(CO)C(CO)[NH]2)[O]C1=O` (stereo not drawn) [Compound 21, [2-(2-diethyl amino ethyl)-succinato].[Cis-1,2-(1,2-dihydroxymethyl)-ethyldiamine]platinum (II)]: the LD50 value in the data set with normal mice is 0.681 mmol/kg. The IC50 in the data set on Lung cancer H292 worked out at 21 µM; in the data set on Testis cell ST, 143 µM; in the data set with Gastric cancer MGC803, 109 µM; in the data set on Esophagus cancer ECA109 it was 84 µM. Also, the “Tumor inhibition rate (x ± SD)” value with breast cancer MCF-7 is on record as 68.3 ± 10.88 9%. The solubility in data set [2] came to 176 mg/mL.
With `CN(C)CCC1CC(=O)[O][Pt]2([NH]CC(CO)(CO)C[NH]2)[O]C1=O` (stereo not drawn) [Compound 22, [2-(2-dimethyl amino ethyl)-succinato].[Cis-1,3-(2,2-dihydroxytmethyl)-propyldiamine]platinum (II)], in the data set on normal mice, the LD50 value is on record as 0.452 mmol/kg. The IC50 in the data set on Lung cancer H292 turned out to be 65 µM; in the data set on Testis cell ST, 52 µM; in the data set on Gastric cancer MGC803 it was 15 µM; in the data set on Esophagus cancer ECA109 it was 17 µM. Besides, in the data set on breast cancer MCF-7, the “Tumor inhibition rate (x ± SD)” value is listed as 70.8 ± 10.12 9%. In data set [2], this compound came in with a solubility of 205 mg/mL.
In the data set with normal mice, `CCN(CC)CCC(CC(=O)[O-])C(=O)[O-].NC1CCC(N)CC1.[Pt+2]` (stereo not drawn) [Compound 25, [2-(2-diethylaminoethyl)-succinato].[Cis-1,4-cyclohexyldiamine]platinum (II)] showed an LD50 value of 0.459 mmol/kg. For the same compound, the IC50 came to 106 µM with Lung cancer H292, 102 µM with Testis cell ST, 96 µM in the data set with Gastric cancer MGC803 and 116 µM with Esophagus cancer ECA109. For the same compound, the “Tumor inhibition rate (x ± SD)” value with breast cancer MCF-7 is recorded as 66.9 ± 9.49 9%. Also, the solubility in data set [2] worked out at 125 mg/mL.
On to `CCN(CC)CCC1CC(=O)[O][Pt]2([NH]CC3(CCOCC3)C[NH]2)[O]C1=O` (stereo not drawn) [Compound 26, [2-(2-diethylaminoethyl)-succinato].[Cis-1,3-(2,2-(4-oxacyclohexyl))-propyldiamine]platinum (II)], for which, in the data set with normal mice, the LD50 value is reported as 0.526 mmol/kg. For the same compound, the half-inhibitory concentration (IC50) was 47 µM in the data set on Lung cancer H292, 44 µM with Testis cell ST, 35 µM in the data set on Gastric cancer MGC803 and 32 µM in the data set on Esophagus cancer ECA109. Besides, the “Tumor inhibition rate (x ± SD)” value with breast cancer MCF-7 was 76.4 ± 14.85 9%. The solubility in data set [2] is 165 mg/mL.
Compound `CCN(CC)CCCCC(CC(=O)[O-])C(=O)[O-].NCCN.[Pt+2]` (stereo not drawn) [Compound 28, [2-(4-diethylamino butyl)-succinato].[Cis-1,2-ethylenediamine]platinum (II) toluenesulfonate] returned an LD50 value in the data set on normal mice of 0.612 mmol/kg. In addition, the IC50 in the data set on Lung cancer H292 was found to be 99 µM; in the data set with Testis cell ST, 138 µM; in the data set with Gastric cancer MGC803, 162 µM; with Esophagus cancer ECA109, 56 µM. The “Tumor inhibition rate (x ± SD)” value with breast cancer MCF-7 was 76.4 ± 9.78 9%. This compound also came in with a solubility in data set [2] of 187 mg/mL.
